Experiment [1] concerns Cdc2 (Cdk1) tyrosine 15 phosphorylation in NCI-H1299 cells. The experiment is described as follows: Cdc2 (Cdk1) tyrosine 15-phosphorylation-inhibitory effect in camptothecin-treated NCI-H1299 cells (ELISA). In kind it is cell-based. The settings on record: Homo sapiens, camptothecin 200 nM 16 hours, then test compound with nocodazole 8 hours, read-out: Cdc2-Y15 Phosphorylation-Inhibitory Effect (H1299, + camptothecin) (EC50). The source says:
(§1) Pharmaceutical Text 2 (Method of Determining Drug Potency in Cells (Cdc2 (Cdk1) Tyrosine 15-Phosphorylation-Inhibitory Effect))
(§2) Fetal bovine serum (FBS) was obtained from Morgate; media RPMI1640 and DMEM were from Invitrogen; camptothecin was from Sigma; gemcitabine was from Nippon Eli Lilly; nocodazole and protease inhibitor cocktail were from Sigma; rabbit anti-Cdc2 antibody and mouse anti-Cdc2 antibody were from Santa Cruz Biotechnology; rabbit anti-tyrosine 15-phosphorylated Cdc2 antibody and horseradish peroxidase-labeled anti-mouse IgG antibody were from Cell Signaling Technology; sure blue reserve TMB peroxidase substrate was from Kirkegaard and Perry Laboratories.
(§3) Human non-small cell lung cancer cells (NCI-H1299) and human colon cancer cells (WiDr) were obtained from American Type Culture Collection (ATCC).
(§4) c) Method of Effect Determination:
In the method of using NCI-H1299 cells, the cells were suspended in RPMI1640 containing 10% FBS, and the cell suspension was applied to a 96-well Nunclondelta-processed plastic plate (bought from Nunc), in an amount of 2000 cells/100 μL/well, in which the cells were incubated overnight in 5% CO2-95% air at 37° C. Camptothecin was dissolved in dimethylsulfoxide (DMSO), and diluted with RPMI1640 containing 10% FBS, and then this was applied to the plate on which the cells had been previously sowed, in an amount of 50 μL/well in such a manner that the final concentration of camptothecin could be 200 nM. Then, the cells were incubated for 16 hours at 37° C. in 5% CO2-95% air. The test compound was stepwise diluted with DMSO, then diluted with 4000 nM nocodazole-containing RPMI1640 containing 10% FBS, and applied to the plate on which the camptothecin-treated cells had been sowed, in an amount of 50 μL/well. The cells were incubated for 8 hours at 37° C. in 5% CO2-95% air, then the medium was removed, and a cytolytic buffer was added to the plate in an amount of 100 μL/well, shaken at 4° C. for 2 hours, then frozen at −80° C., and melted to give a cell solution. Cdc2 and tyrosine 15-phosphorylated Cdc2 in the cell solution were determined through enzyme-linked immunosorbent assay (ELISA), and the ratio of tyrosine 15-phosphorylated Cdc2 to Cdc2 was calculated to obtain the 50% phosphorylation-inhibitory concentration of the test compound to the cells (EC50, nM). The cytolytic buffer used herein is an aqueous solution containing 20 mM Hepes (pH 7.5), 150 mM sodium chloride, 1 mM disodium ethylenediaminetetraacetate, 0.1% polyoxyethylene (10) octylphenyl ether, 1% protease inhibitor cocktail, 1 mM dithiothreitol, 2 mM sodium orthovanadate, 10 mM sodium fluoride and 10 mM glycerol diphosphate. Cdc2 was determined through ELISA as follows: A rabbit anti-Cdc2 antibody solution, which had been diluted 200-fold with 50 mM carbonate-bicarbonate buffer (pH 9.6), was applied to a 96-well maxisorpimmuno plate (bought from Nunc), in an amount of 50 μL/well, and statically kept overnight at 4° C. so as to fix the antibody on the plate. Next, this was washed three times with phosphate-buffered saline (PBS), and 5% bovine serum albumin-containing PBS (5% BSA/PBS) was added thereto in an amount of 300 μL/well, and statically kept at room temperature for 2 hours, and then again washed three times with PBS. A mouse anti-Cdc2 antibody solution that had been diluted 100-fold with 0.05% polyoxyethylene sorbitan monolaurate and 1% BSA-containing Tris-HCl-buffered saline (1% BSA/TBS-T) was added to it in an amount of 50 μL/well, and the cell solution was added thereto in an amount of 5 μL/well and statically kept overnight at 4° C. Next, this was washed three times with 0.05% polyoxyethylene sorbitan monolaurate and 0.1% BSA-containing Tris-HCl-buffered saline (0.1% BSA/TBS-T), and then a horseradish peroxidase-labeled anti-mouse IgG antibody solution that had been diluted 2000-fold with 1% BSA/TBS-T was added thereto in an amount of 70 μL/well, and statically kept at room temperature for 3 hours. […]
(In general: ELISA stands for enzyme-linked immunosorbent assay.)

The subject of experiment [2] is Cdc2 (Cdk1) tyrosine 15 phosphorylation in WiDr cells. Nature of the experiment: Cdc2 (Cdk1) tyrosine 15-phosphorylation-inhibitory effect in gemcitabine-treated WiDr cells (ELISA). The class given is cell-based. The settings on record: Homo sapiens, gemcitabine 100 nM 24 hours, then test compound with nocodazole 8 hours, read-out: Cdc2-Y15 Phosphorylation-Inhibitory Effect (WiDr, + gemcitabine) (EC50).
From the text: as §1, §2, §3, §4
In the method of using WiDr cells, the cells were suspended in DMEM containing 10% FBS, and the cell suspension was applied to a 96-well Nunclondelta-processed plastic plate in an amount of 2000 cells/100 μL/well, in which the cells were incubated overnight in 5% CO2-95% air at 37° C. Gemcitabine was dissolved in PBS, and diluted with DMEM containing 10% FBS, and then this was applied to the plate on which the cells had been previously sowed, in an amount of 50 μL/well in such a manner that the final concentration of gemcitabine could be 100 nM. Then, the cells were incubated for 24 hours at 37° C. in 5% CO2-95% air. The test compound was stepwise diluted with DMSO, then diluted with 1200 nM nocodazole-containing DMEM containing 10% FBS, and applied to the plate on which the gemcitabine-treated cells had been sowed, in an amount of 50 μL/well. The cells were incubated for 8 hours at 37° C. in 5% CO2-95% air, then the culture was removed, and a cytolytic buffer was added to the plate in an amount of 100 μL/well, shaken at 4° C. for 2 hours, then frozen at −80° C., and melted to give a cell solution. Cdc2 and tyrosine 15-phosphorylated Cdc2 in the cell solution were determined through ELISA, and the ratio of tyrosine 15-phosphorylated Cdc2 to Cdc2 was calculated to obtain the 50% phosphorylation-inhibitory concentration of the test compound to the cells (EC50, nM). Cdc2 was determined through ELISA as follows: A rabbit anti-Cdc2 antibody solution, which had been diluted 200-fold with 50 mM carbonate-bicarbonate buffer (pH 9.6), was applied to a 96-well maxisorp plastic plate in an amount of 50 μL/well, and statically kept overnight at 4° C. so as to fix the antibody on the plate. Next, this was washed three times with PBS, and 5% BSA/PBS was added thereto in an amount of 300 μL/well, and statically kept at room temperature for 2 hours, and then again washed three times with PBS. A mouse anti-Cdc2 antibody solution that had been diluted 100-fold with 1% BSA/TBS-T was added to it in an amount of 50 μL/well, and the cell solution was added thereto in an amount of 10 μL/well and statically kept overnight at 4° C. Next, this was washed three times with 0.1% BSA/TBS-T, and then a horseradish peroxidase-labeled anti-mouse IgG antibody solution that had been diluted 2000-fold with 1% BSA/TBS-T was added thereto in an amount of 70 μL/well, and statically kept at room temperature for 3 hours. Finally, this was washed five times with 0.1% BSA/TBS-T, then a substrate of sure blue reserve TMB peroxidase was added to it in an amount of 100 μL/well, and left for coloration in a dark place at room temperature for 15 minutes. Then, 1 M hydrochloric acid was added to it in an amount of 100 μL/well to stop the reaction, and this was analyzed through colorimetry. […]

SMILES strings stand for the structures.

Turning to `C=CCn1c(=O)c2cnc(Nc3ccc(N4CCN(C)CC4)cc3)nc2n1-c1cccc(C(=O)N(C)C)c1` [Example 1, 3-(2-allyl-6-{[4-(4-methylpiperazin-1-yl)phenyl]amino}-3-oxo-1,2-dihydro-3H-pyrazolo[3,4-d]pyrimidin-1-yl)-N,N-dimethylbenzamide], the half-maximal effective concentration (EC50) in experiment [1] was determined as 104 nM; in experiment [2], 143 nM.

Take `C=CCn1c(=O)c2cnc(Nc3ccc(N4CCN(C)CC4)cc3)nc2n1-c1cccc(C(C)(C)O)c1` [Example 19, 2-allyl-1-[3-(1-hydroxy-1-methylethyl)phenyl]-6-{[4-(4-methylpiperazin-1-yl)phenyl]amino}-1,2-dihydro-3H-pyrazolo[3,4-d]pyrimidin-3-one]: the EC50 in experiment [1] was 247 nM; in experiment [2], 350 nM.

As for `C=CCn1c(=O)c2cnc(Nc3ccc(N4CCN(C)CC4)cc3)nc2n1-c1cccc(CN(C)C)c1` [Example 26, 2-allyl-1-[3-(dimethylaminomethyl)phenyl]-6-{[4-(4-methylpiperazin-1-yl)phenyl]amino}-1,2-dihydro-3H-pyrazolo[3,4-d]pyrimidin-3-one], in experiment [1], the 50% effective concentration (EC50) amounted to 114 nM.

As to `C=CCn1c(=O)c2cnc(Nc3ccc(N4CCN(C)CC4)c(CO)c3)nc2n1-c1ccccn1` [Example 29, 2-allyl-6-{[3-hydroxymethyl-4-(4-methylpiperazin-1-yl)phenyl]amino}-1-pyridin-2-yl-1,2-dihydro-3H-pyrazolo[3,4-d]pyrimidin-3-one], the EC50 in experiment [1] is 188 nM. Same read-out and setting: to `C=CCn1c(=O)c2cnc(Nc3ccc(N4CCN(C)CC4)c(C)c3)nc2n1-c1cccc(CN(C)C)n1` [Example 52, 2-allyl-1-{6-[(dimethylamino)methyl]pyridin-2-yl}-6-{[3-methyl-4-(4-methylpiperazin-1-yl)phenyl]amino}-1,2-dihydro-3H-pyrazolo[3,4-d]pyrimidin-3-one] belongs 46 nM. As to `C=CCn1c(=O)c2cnc(Nc3ccc(N4CCN(C)CC4)c(C)c3)nc2n1-c1cccc(OCCO)n1` [Example 98, 2-allyl-1-[6-(2-hydroxyethoxy)pyridin-2-yl]-6-{[3-methyl-4-(4-methylpiperazin-1-yl)phenyl]amino}-1,2-dihydro-3H-pyrazolo[3,4-d]pyrimidin-3-one], the figures for the EC50 in experiment [1] and in experiment [2] were 83 nM and 39 nM, respectively.

Take `C=CCn1c(=O)c2cnc(Nc3ccc(N4CCN(C)CC4)cc3)nc2n1-c1cccc(CN(C)S(C)(=O)=O)n1` [Example 99, N-{[6-(2-allyl-6-{[4-(4-methylpiperazin-1-yl)phenyl]amino}-3-oxo-1,2-dihydro-3H-pyrazolo[3,4-d]pyrimidin-1-yl)pyridin-2-yl]methyl}-N-methylmethanesulfonamide]: the EC50 in experiment [1] amounted to 86 nM; in experiment [2], 122 nM. For `Cc1cc(Nc2ncc3c(=O)n(Cc4ccccc4)n(-c4ccccc4)c3n2)ccc1N1CCN(C)CC1` [Example 111, 2-benzyl-6-{[3-methyl-4-(4-methylpiperazin-1-yl)phenyl]amino}-1-phenyl-1,2-dihydro-3H-pyrazolo[3,4-d]pyrimidin-3-one], the EC50 in experiment [1] was 93 nM. With `C#CCn1c(=O)c2cnc(Nc3ccc(N4CCN(C)CC4)cc3)nc2n1-c1cccc(C(C)(C)O)n1` [Example 113, 1-[6-(1-hydroxy-1-methylethyl)pyridin-2-yl]-6-{[4-(4-methylpiperazin-1-yl)phenyl]amino}-2-(2-propynyl)-1,2-dihydro-3H-pyrazolo[3,4-d]pyrimidin-3-one], the EC50 in experiment [2] was 8 nM.

What is called EC50 is the concentration at which the effect is half-maximal.

(Values after US7935708B2, “Dihydropyrazolopyrimidinone derivatives” (MSD K.K., priority 2006, dated 2011).)
